Results as given in publication PMC13385394, “Cryo-EM Structure of the TRPC1/5 Heteromer Enables Design of Antidepressant and Anxiolytic Drug with Reduced Side Effects” (Nature Communications, 2026).
“Also recorded” adds a separate entry of the source.

Experiments:
[1] = biological target: T1, TRPC5 homomers (Homo sapiens, UniProt Q9UL62); test: Whole-cell patch-clamp, agonist activation of TRPC5 homomers in HEK293T cells; format: cell-based
T1 construct: full length hTRPC5 (TRPC5 wild type (WT)); expressed in transfected cells; host or cells: HEK293T
T1 sequence (Q9UL62 1-973): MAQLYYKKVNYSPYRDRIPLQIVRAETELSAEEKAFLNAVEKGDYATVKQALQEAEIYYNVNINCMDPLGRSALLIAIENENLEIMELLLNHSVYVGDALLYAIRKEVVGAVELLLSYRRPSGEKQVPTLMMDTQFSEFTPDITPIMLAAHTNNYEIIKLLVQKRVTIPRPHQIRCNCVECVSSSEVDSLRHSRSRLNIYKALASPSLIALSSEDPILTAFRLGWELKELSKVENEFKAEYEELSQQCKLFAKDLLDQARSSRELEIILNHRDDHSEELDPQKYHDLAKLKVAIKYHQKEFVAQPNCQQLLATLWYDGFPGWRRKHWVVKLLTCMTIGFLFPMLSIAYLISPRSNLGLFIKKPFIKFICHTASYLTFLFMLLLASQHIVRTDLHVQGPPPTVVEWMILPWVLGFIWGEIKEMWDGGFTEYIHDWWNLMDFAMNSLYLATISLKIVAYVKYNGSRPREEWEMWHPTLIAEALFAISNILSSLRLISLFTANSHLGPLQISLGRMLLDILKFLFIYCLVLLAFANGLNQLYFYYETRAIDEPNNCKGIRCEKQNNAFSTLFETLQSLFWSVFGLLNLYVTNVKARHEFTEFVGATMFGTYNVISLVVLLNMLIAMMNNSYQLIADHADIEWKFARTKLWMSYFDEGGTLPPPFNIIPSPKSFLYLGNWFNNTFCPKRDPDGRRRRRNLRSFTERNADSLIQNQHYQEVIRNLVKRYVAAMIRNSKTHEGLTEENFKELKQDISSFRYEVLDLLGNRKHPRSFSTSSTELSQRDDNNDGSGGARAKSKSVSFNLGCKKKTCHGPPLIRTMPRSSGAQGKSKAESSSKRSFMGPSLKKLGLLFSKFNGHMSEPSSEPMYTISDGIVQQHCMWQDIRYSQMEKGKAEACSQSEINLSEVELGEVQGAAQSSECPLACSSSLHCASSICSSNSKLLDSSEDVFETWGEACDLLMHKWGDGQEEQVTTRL

[2] = biological target: T2, TRPC1/5 heteromers (Homo sapiens, UniProt P48995+Q9UL62); test: Whole-cell patch-clamp, agonist activation of TRPC1/5 (TRPC1 and TRPC5 co-transfected) in HEK293T cells; format: cell-based
T2 construct: wild type plasmids full-length hTRPC1 (WT) and full-length hTRPC5 (WT); expressed in transfected cells; host or cells: HEK293T
Source text: (§1) The full-length hTRPC5 or truncated mTRPC5, and the full-length hTRPC1 constructs was respectively co-transfected in a plasmid ration 1:3 (w/w) into HEK293T cells (from the ATCC). As previously described, a mCherry was inserted into TRPC5 constructs and a GFP was inserted at the C terminus of TRPC1. Therefore, Cells with red and green fluorescence were selected for whole-cell patch recordings (HEKA EPC10 amplifier, […] software (https://www.heka.com/downloads/downloads_main.html#down_patchmaster)). A 1-s ramp protocol from −100 to +100 mV was applied at a frequency of 0.2 Hz. Signals were sampled at 50 kHz and filtered at 2.9 kHz. The pipette solution contained 130 mM CsCl, 1 mM MgCl2, 5.7 mM CaCl2, 10 mM EGTA, and 10 mM Hepes (calculated free Ca^2+, 200 nM), and the pH was titrated to 7.2 using CsOH[40]. The standard bath solution contained 140 mM NaCl, 5 mM KCl, 1 mM MgCl2, 2 mM CaCl2, 10 mM Hepes, and 10 mM D-glucose, and the pH was adjusted to 7.4 with NaOH (1 M). The recording chamber (150 μL) was perfused at a rate of ~2 mL/min. All recordings were performed at room temperature.

[3] = biological target: T3, TRPC1/5 (Homo sapiens, UniProt P48995+Q9UL62); test: Calcium flux assay (Calcium 5 kit, EA 100 nM), hTRPC1 + hTRPC5 in HEK293T cells; format: cell-based; settings: calcium flux screening, 10 μM
T3 construct: Full-length, non-tagged hTRPC1 and hTRPC5 constructs are used for calcium flux assays; expressed in transfected cells; host or cells: HEK293T
Procedure: Full-length, non-tagged hTRPC1 and hTRPC5 constructs are used for calcium flux assays. hTRPC5 is transfected alone or co-transfected with hTRPC1 into HEK293T cells (70–80% confluency) using PEI as the transfection reagent.
The culture medium is removed, and 100 µL of loading buffer (Calcium 5 Assay Kit) is added to each well, followed by a 1-h incubation at 37 °C in 5% CO2. Five minutes before measurement, molecules are added to each well at a final concentration of 10 µM under light-sensitive conditions.

[4] = biological target: T4, hTRPC5 (Homo sapiens, UniProt Q9UL62); test: Calcium flux assay (Calcium 5 kit, EA 100 nM), hTRPC5 in HEK293T cells; format: cell-based; settings: calcium flux screening, 10 μM
T4 construct: Full-length, non-tagged hTRPC1 and hTRPC5 constructs are used for calcium flux assays; expressed in transfected cells; host or cells: HEK293T
T4 sequence (Q9UL62 1-973): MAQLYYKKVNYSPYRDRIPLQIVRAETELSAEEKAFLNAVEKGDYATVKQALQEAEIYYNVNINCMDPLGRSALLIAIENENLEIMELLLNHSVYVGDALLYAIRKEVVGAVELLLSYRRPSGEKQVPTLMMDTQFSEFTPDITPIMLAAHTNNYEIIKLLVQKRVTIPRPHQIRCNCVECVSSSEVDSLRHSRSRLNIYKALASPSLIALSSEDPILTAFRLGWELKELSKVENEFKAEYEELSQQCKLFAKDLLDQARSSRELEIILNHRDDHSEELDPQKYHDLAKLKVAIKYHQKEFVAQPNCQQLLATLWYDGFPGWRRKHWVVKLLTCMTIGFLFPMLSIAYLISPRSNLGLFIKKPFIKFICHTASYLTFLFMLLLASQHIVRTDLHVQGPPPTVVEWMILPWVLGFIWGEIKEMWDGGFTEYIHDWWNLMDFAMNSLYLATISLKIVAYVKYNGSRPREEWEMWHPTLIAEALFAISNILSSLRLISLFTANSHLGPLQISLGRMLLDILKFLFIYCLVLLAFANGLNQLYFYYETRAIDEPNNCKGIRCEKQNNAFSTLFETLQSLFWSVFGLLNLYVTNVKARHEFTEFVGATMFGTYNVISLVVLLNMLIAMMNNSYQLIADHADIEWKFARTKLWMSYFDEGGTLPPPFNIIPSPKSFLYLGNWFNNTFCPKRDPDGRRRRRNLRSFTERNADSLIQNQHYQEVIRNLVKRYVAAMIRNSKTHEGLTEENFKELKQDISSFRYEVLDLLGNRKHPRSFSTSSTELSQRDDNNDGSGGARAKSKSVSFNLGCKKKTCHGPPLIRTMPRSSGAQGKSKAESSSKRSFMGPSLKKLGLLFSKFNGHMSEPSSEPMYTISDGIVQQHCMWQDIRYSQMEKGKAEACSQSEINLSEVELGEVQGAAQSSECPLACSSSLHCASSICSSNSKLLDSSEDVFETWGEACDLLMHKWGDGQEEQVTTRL
Procedure: Five minutes before measurement, molecules are added to each well at a final concentration of 10 µM under light-sensitive conditions.

[5] = biological target: T1, TRPC5 homomers; test: Whole-cell patch-clamp, inhibition of EA-activated TRPC5 homomers; format: cell-based; settings: whole-cell patch-clamp
[6] = biological target: T2, TRPC1/5 heteromers; test: Whole-cell patch-clamp, inhibition of EA-activated TRPC1/5 heteromers; format: cell-based; settings: whole-cell patch-clamp; read-out: IC50, TRPC1/C5
Source text: as §1

[7] = tested on: diet-induced obesity (DIO) mice; test: Diet-induced obesity (DIO) model, body weight and food intake; format: in vivo, mouse; settings: 11 days once daily, HC-070 and JD03-02 10 mg/kg i.g., Semaglutide 0.123 mg/kg s.c.
Procedure: A maximum of five mice were housed per cage during the acclimatization period, and three mice per cage during the experimental period. […] The day of administration was defined as day 1 (D1) of the experiment, with a single dose/day administered for 11 consecutive days. Daily observations were made on the animals’ general condition. Body weight was measured on days 1, 3, 5, 7, 9, and 11 post-administrations. Food intake was measured on days 1, 3, 5, 7, and 9 post-administrations by calculating the difference between the amount of food provided and the amount remaining in the cage, divided by the number of animals in the cage to determine the average food intake per mouse. The cumulative food intake during the experiment was calculated by summing the food intake measurements taken on different days.

[8] = tested on: healthy C57BL/6J mice; settings: mouse, in vivo
Procedure: The Open-Field test (OFT) was utilized to evaluate the autonomous behavior, exploratory tendencies, and anxiety levels of experimental animals in a new environment. Each mouse was placed at the center of the container and given a 10-min exploration period. Before the test, the animals were acclimated to the experimental setting for 60 min. […] This cleaning procedure aimed to reduce the risk of contamination and prevent any misleading experimental results due to olfactory stimuli. Anxiety levels and exploratory behavior were assessed by measuring the time spent in the central area, the number of entries into the central area, and the total distance traveled by the mice.

[9] = tested on: mCPP-induced anxiety; test: Open-field test (OFT), mCPP-induced anxiety model; settings: mCPP-induced anxiety-like mice; single dose
[10] = tested on: CUMS-induced depressive-like behaviors; test: Sucrose preference test (SPT) in CUMS model; format: in vivo, mouse; settings: CUMS mice
Procedure: (§2) The stressors included food and water deprivation, foot shock, wet bedding, cage tilting, restraint, shaking, and olfactory stimulation. These seven stressors were randomly applied each week to ensure unpredictability. The stress induction was maintained continuously for 28 days. Following model establishment, the tail suspension test (TST) was performed to confirm the successful induction of depressive-like behaviors. Mice that met the criteria were randomly assigned to experimental groups.
Acute Treatment: A single dose of the test compound was administered, followed by the sucrose preference test (SPT).
Chronic Treatment: Mice were treated daily for 14 consecutive days. The SPT was conducted on day 11, and the forced swimming test (FST) was performed on day 14.
Mice were acclimated to 1% sucrose solution and plain water for 2 days. On the second day, the positions of the sucrose solution and water were swapped to eliminate positional bias. […] Mice were provided with pre-weighed 1% sucrose solution and plain water. […] Sucrose preference (%) was calculated as Sucrose Preference = A/(A + B)×100.

[11] = tested on: CUMS-induced depressive-like behaviors; test: Forced swim test (FST) in CUMS model; format: in vivo, mouse; settings: CUMS mice; 14 days once-daily oral; vs vehicle
Procedure: as §2, with “groups. Chronic Treatment: Mice were treated daily for 14 consecutive days. The SPT was conducted on day 11, and the forced swimming test (FST) was performed on day 14.” for “groups.”

[12] = biological target: the molecule itself; test: cryo-EM structure; TRPC1/5 heteromer co-expressed, purified in tandem on Strep-Tactin and anti-Flag M2 resin and Superose 6 (25 mM Hepes pH 7.5, 150 mM NaCl, 1 mM DTT, LMNG/CHS/GDN); single-particle cryo-EM, 2.84 Å overall

T2 sequence (P48995 whole entry, one chain of several): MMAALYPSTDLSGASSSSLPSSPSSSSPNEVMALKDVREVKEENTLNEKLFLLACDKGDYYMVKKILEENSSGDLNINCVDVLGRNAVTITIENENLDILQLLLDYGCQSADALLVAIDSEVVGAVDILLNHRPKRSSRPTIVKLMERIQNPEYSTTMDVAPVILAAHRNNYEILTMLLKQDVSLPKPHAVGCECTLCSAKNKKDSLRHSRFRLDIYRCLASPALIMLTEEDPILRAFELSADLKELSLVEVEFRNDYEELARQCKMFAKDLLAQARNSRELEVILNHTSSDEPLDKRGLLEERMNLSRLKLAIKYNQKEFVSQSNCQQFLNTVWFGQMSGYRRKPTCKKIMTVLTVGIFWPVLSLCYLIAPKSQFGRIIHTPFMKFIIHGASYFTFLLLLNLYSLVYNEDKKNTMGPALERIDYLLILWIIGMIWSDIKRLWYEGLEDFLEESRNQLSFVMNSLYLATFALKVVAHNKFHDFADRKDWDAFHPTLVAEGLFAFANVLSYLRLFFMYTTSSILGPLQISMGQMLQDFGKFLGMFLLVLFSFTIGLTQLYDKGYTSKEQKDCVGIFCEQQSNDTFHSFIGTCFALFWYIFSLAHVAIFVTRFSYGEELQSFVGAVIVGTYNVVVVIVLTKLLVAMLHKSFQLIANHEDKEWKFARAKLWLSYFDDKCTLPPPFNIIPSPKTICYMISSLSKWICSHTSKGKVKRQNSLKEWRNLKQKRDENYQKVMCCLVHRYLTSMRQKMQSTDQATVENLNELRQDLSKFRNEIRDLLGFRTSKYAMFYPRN
T3 sequence (P48995 whole entry, one chain of several): as above

Cn1c(=O)n(CCCO)c(=O)c2c1nc(Oc1ccc(Cl)c(OC(F)(F)F)c1)n2Cc1ccc(Cl)cc1 [AM237]
activation of TRPC5 homomers (in words) [1]: activates TRPC5 homomers | activation of TRPC1/5 heteromers (in words) [2]: not TRPC1/5 heteromers

Cn1c(=O)n(CCN2CCCC2)c(=O)c2c1nc(Oc1cccc(Cl)c1)n2Cc1ccc(Cl)cc1 [H01]
inhibition of TRPC1/5 heteromers (in words) [3]: moderate inhibition | inhibitory activity toward TRPC5 homomers (in words) [4]: markedly reduced inhibitory activity

CC(C)NCCn1c(=O)c2c(nc(Oc3cccc(Cl)c3)n2Cc2ccc(Cl)cc2)n(C)c1=O [H02]
inhibition of TRPC1/5 heteromers (in words) [3]: moderate inhibition | inhibitory activity toward TRPC5 homomers (in words) [4]: markedly reduced inhibitory activity

Cn1c(=O)n(CCNCc2ccccc2)c(=O)c2c1nc(Oc1cccc(Cl)c1)n2Cc1ccc(Cl)cc1 [H03]
inhibitory activity toward TRPC5 homomers (in words) [4]: restored TRPC5 homomer inhibition

CN(C)CCCCCCn1c(=O)c2c(nc(Oc3cccc(Cl)c3)n2Cc2ccc(Cl)cc2)n(C)c1=O [H10]
HillSlope, TRPC5 [5]: 0.3841 | IC50 [5]: 503 nM | IC50 [6]: 2.57 nM

Cn1c(=O)n(CCCO)c(=O)c2c1nc(Oc1cccc(Cl)c1)n2Cc1ccc(Cl)cc1 [HC-070]
body weight [7]: significantly increased body weight | food intake [7]: elevated food intake | OFT total distance traveled [8]: increased total distance traveled

CN1C(=O)CN=C(c2ccccc2)c2cc(Cl)ccc21 [diazepam, reference compound]
OFT total distance traveled [9]: no significant effect

CNCCC(Oc1ccc(C(F)(F)F)cc1)c1ccccc1 (centres unmarked) [fluoxetine, reference compound]
sucrose intake (SPT), repeated dosing ([10]; 11 days once-daily oral, vs vehicle): significantly improved sucrose intake | sucrose preference (SPT), single dose ([10]; single oral dose, JD03-02 30 mg/kg): no immediate effect; also recorded: ineffective | immobility (FST), repeated dosing [11]: reduced immobility

Semaglutide [reference compound]
body weight [7]: effectively reduced both weight and appetite | food intake [7]: effectively reduced both weight and appetite

B1: C-terminal truncated (210 residues) mouse TRPC5 with triple Flag tag and MBP on its N terminus (domain or fragment, UniProt Q9QX29 1-765, looked up)
chain: MAQLYYKKVNYSPYRDRIPLQIVRAETELSAEEKAFLSAVEKGDYATVKQALQEAEIYYNVNINCMDPLGRSALLIAIENENLEIMELLLNHSVYVGDALLYAIRKEVVGAVELLLSYRKPSGEKQVPTLMMDTQFSEFTPDITPIMLAAHTNNYEIIKLLVQKRVTIPRPHQIRCNCVECVSSSEVDSLRHSRSRLNIYKALASPSLIALSSEDPILTAFRLGWELKELSKVENEFKAEYEELSQQCKLFAKDLLDQARSSRELEIILNHRDDHSEELDPQKYHDLAKLKVAIKYHQKEFVAQPNCQQLLATLWYDGFPGWRRKHWVVKLLTCMTIGFLFPMLSIAYLISPRSNLGLFIKKPFIKFICHTASYLTFLFMLLLASQHIVRTDLHVQGPPPTVVEWMILPWVLGFIWGEIKEMWDGGFTEYIHDWWNLMDFAMNSLYLATISLKIVAYVKYNGSRPREEWEMWHPTLIAEALFAISNILSSLRLISLFTANSHLGPLQISLGRMLLDILKFLFIYCLVLLAFANGLNQLYFYYETRAIDEPNNCKGIRCEKQNNAFSTLFETLQSLFWSVFGLLNLYVTNVKARHEFTEFVGATMFGTYNVISLVVLLNMLIAMMNNSYQLIADHADIEWKFARTKLWMSYFDEGGTLPPPFNIIPSPKSFLYLGNWFNNTFCPKRDPDGRRRRHNLRSFTERHADSLIQNQHYQEVIRNLVKRYVAAMIRNSKTNEGLTEENFKELKQDISSFRYEVLDLLGNRK
notes: TRPC5, mouse, lacking the 210 C-terminal residues; Three copies of this chain stand in the heterotetramer with one TRPC1 subunit; The results call the complex 'human TRPC1/5' although the TRPC5 construct is mouse; also called Cryo-TRPC5; truncated mTRPC5; not shown: triple Flag, N-terminal, kept
binding result [12]: binds
